In ChEMBL document CHEMBL4043266, “Pentacyclic triterpenes as α-glucosidase and α-amylase inhibitors: Structure-activity relationships and the synergism with acarbose” (Bioorg Med Chem Lett, 2017):

How the values were obtained:
[1] = target: T1, Pancreatic alpha-amylase (Sus scrofa) (UniProt P00690)
T1 sequence (whole entry): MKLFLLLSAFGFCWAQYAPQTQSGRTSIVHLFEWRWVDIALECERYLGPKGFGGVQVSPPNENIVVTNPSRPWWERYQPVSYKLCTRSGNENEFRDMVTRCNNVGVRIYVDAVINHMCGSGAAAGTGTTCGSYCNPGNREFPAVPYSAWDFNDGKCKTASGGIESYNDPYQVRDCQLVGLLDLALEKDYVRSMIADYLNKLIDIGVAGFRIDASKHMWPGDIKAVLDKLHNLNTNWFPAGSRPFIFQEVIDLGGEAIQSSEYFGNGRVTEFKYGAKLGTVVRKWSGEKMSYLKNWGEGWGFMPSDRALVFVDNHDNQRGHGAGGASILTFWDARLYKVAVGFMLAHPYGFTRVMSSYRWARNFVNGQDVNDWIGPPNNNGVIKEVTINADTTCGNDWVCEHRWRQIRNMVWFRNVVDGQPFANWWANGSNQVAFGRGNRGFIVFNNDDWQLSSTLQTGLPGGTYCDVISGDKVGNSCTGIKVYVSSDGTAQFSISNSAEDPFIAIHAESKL
Description: Non-competitive inhibition of porcine pancreatic alpha-amylase assessed as inhibitor-enzyme complex using starch as substrate by Lineweaver-Burk plot analysis

[2] = target: T1, Pancreatic alpha-amylase (Sus scrofa); remark: listed apart in the source
Description: Non-competitive inhibition of porcine pancreatic alpha-amylase assessed as inhibitor-enzyme-substrate complex using starch as substrate by Lineweaver-Burk plot analysis

Kii [1]: 28.3 µM | Kis [2]: 25.6 µM
Compound: C[C@H]1[C@H](C)CC[C@]2(C(=O)O)CC[C@]3(C)C(=CC[C@@H]4[C@@]5(C)C[C@@H](O)[C@H](O)C(C)(C)[C@@H]5CC[C@]43C)[C@H]12
